From ChEMBL document CHEMBL5726897, “Pyridopyrimidinones and methods of use thereof” (2019)

Biological target: Glutamate NMDA receptor; GRIN1/GRIN2A (Homo sapiens, UniProt Q05586+Q12879)
Assay: TBD: TBD
Format: protein-complex assay

Sequence of Glutamate NMDA receptor; GRIN1/GRIN2A (Q12879 whole entry, other chains not shown): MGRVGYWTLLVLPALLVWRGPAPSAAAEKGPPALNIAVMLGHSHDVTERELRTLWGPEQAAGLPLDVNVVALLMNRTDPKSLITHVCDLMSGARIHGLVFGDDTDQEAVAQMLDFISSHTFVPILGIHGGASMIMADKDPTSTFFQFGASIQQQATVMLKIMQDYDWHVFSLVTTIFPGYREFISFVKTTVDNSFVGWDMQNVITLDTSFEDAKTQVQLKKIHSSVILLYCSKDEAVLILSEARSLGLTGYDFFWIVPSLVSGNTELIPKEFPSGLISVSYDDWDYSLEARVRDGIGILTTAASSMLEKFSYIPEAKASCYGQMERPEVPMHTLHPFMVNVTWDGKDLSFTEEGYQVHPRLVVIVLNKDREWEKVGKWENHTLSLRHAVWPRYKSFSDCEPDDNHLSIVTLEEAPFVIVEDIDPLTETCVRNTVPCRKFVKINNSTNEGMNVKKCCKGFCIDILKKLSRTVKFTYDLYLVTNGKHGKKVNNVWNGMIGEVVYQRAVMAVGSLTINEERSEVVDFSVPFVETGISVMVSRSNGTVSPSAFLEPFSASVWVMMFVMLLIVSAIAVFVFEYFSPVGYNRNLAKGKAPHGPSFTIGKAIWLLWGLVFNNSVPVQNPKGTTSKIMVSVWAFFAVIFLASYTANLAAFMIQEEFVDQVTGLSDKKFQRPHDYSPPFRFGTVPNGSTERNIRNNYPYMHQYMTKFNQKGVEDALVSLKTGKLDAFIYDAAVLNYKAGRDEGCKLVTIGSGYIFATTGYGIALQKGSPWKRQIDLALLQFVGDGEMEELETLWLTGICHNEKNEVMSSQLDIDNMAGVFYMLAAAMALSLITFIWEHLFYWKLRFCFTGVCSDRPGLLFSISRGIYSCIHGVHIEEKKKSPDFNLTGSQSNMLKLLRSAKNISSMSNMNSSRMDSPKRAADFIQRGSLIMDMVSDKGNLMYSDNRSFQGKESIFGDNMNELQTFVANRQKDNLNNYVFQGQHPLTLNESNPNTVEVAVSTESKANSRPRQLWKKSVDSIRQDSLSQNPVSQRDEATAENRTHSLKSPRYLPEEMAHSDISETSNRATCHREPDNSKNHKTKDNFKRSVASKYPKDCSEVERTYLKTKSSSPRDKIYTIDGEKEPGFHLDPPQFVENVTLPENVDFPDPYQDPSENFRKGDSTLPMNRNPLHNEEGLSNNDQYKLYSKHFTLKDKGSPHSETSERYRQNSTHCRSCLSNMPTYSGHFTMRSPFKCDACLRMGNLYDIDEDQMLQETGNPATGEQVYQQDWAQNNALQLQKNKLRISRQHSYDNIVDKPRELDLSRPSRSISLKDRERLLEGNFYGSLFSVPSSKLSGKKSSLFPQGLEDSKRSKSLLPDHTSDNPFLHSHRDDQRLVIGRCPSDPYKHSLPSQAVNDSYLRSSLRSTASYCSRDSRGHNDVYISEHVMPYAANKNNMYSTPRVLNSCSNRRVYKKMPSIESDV

SMILES: CCN(Cc1cc(=O)n2c(OC)cccc2n1)c1ccc(F)cc1
- EC50: 4.4 µM
